Data: patent US20240261237A1, “REDUCING SIDE EFFECTS OF NMDA RECEPTOR ANTAGONISTS” (Seelos Therapeutics, Inc., priority 2021, published 2024)

Tests used:
[1] = test system: adults with major depressive disorder (MDD) at imminent risk of suicide; test: Example 4 Phase 2 study: STS-CMCM total score; type: in vivo, human; conditions: for STS mean score: baseline 21.9; for STS-CMCM score (range 0-52 units): 24 hours post-administration
Text: The Sheehan Suicidality Tracking Scale (Sheehan-STS, S-STS) is a prospective rating scale that tracks both treatment-emergent suicidal ideation and behaviors. The Sheehan-STS is a scale with 14 core items and nine additional questions contingent on the core responses that can be administered either by a clinician or patient through self-report. Each item in the Sheehan-STS is scored on a 5-point Likert scale (0=not at all, 1=a little, 2-moderately, 3=very, and 4-extremely).
(§1) The CMCM version of the S-STS (S-STS CMCM) has four parts, and can also provide a comprehensive description of suicidal ideation and behavior. See, e.g., Sheehan et al., Innov. Clin. Neurosci. Vol. 11, No. 9-10, pp. 93-140 (2014) The S-STS CMCM (version 01/01/19) is a clinician-rated outcome measure which assesses SI/B on multiple patient and clinician-rated items. It includes 13 suicidality items that are rated on a Likert-type scale ranging from “not at all” (0) to “extremely” (4), yielding a total score ranging from 0 to 52. The final 6 items are used only when the patient misses a visit and is unable to complete the scale; if that missed visit is due to attempted or completed suicide, the possible maximum score is […]. The CMCM also yields 5 different single-item global assessments: 1) subject-rated likelihood of a suicide attempt; 2) subject-rated treatment needed; 3) clinician global severity of suicidal impulses, thoughts, and behaviors; 4) clinician judgment of suicide risk at this time and level of management needed for suicidality; and 5) clinician judgment of subject's likelihood of making a suicide attempt or of dying by suicide in the next 7 days.
(§2) The secondary endpoints are the change from baseline at 24 hours, as well as at Day 16, in the following: • (1) PGIS-SI/B (Day 16 only) • (2) S-STS total score (Day 16 only) • (3) CGI of Change in SI/B (CGIC-SI/B) • (4) PGI of Change in SI/B (PGIC-SI/B) • (5) S-STS Clinician-Rated Global Severity of Suicidal Impulses, Thoughts, and Behaviors • (6) S-STS Clinician judgment of subject's risk of a suicide attempt or death by suicide at this time • (7) S-STS Clinician judgment of subject's likelihood (risk) of making a suicide attempt or of dying by suicide in the next 7 days • (8) S-STS Subject-rated global severity of suicidal impulses, thoughts, and behavior • (9) S-STS Subject-rated treatment needed score • (10) MADRS item 10 response rate (response≤3 units) • (11) MADRS response (total score ≥50% reduction from baseline) • (12) MADRS remission (total score ≤12)

[2] = test system: adults with major depressive disorder (MDD) at imminent risk of suicide; test: Example 4 Phase 2 study: adverse events; conditions: in vivo
subjects = conditions: in vivo; cited from earlier work
[3] = test system: adults with major depressive disorder (MDD) at imminent risk of suicide; test: Example 4 Phase 2 study: STS-CMCM Risk of Suicide at Within the Next 7 Days; type: in vivo, human
Text: as §1, §2

[4] = test system: adults with major depressive disorder (MDD) at imminent risk of suicide; test: Example 4 Phase 2 study: CADSS (dissociation); conditions: for CADSS change from baseline: at 40 minutes
[5] = test system: adults with major depressive disorder (MDD) at imminent risk of suicide; test: Example 4 Phase 2 study: C-SSRS; conditions: 24 hours post-administration, baseline yes
[6] = test system: adults with major depressive disorder (MDD) at imminent risk of suicide; test: Example 4 Phase 2 study: MADRS Total; type: in vivo, human; conditions: both subjects; 24 hours
Text: The Montgomery-Åsberg Depression Rating Scale (MADRS) is used to assess the severity of depression among subjects who have a diagnosis of depression. The MADRS includes 10 items and uses a 0 to 6 severity scale, scored following the interview. Higher scores indicate increasing depressive symptoms. Ratings can be added to form an overall score (range 0 to 60); no weights are used. Cut-off points include: 0 to 6—symptom absent, 7 to 19—mild depression, 20 to 34—moderate, 35 to 60—severe depression.
(§3) MADRS is a diagnostic questionnaire that can be used to measure the severity of a depressive episode in a subject. In some embodiments, the MADRS can be used to measure the severity of depressive symptoms in a subject, for example, a subject suffering from MDD, TRD, bipolar depression, and other psychiatric disorders described herein with a depression component. In some embodiments, the MADRS can be used to measure TRD. In some embodiments, the MADRS can be used to measure other psychiatric disorders, as described herein. […]

[7] = test system: adults with major depressive disorder (MDD) at imminent risk of suicide; test: Example 4 Phase 2 study: STS-CMCM risk of suicide at this time; type: in vivo, human
Text: as §1, §2

[8] = test system: adults with major depressive disorder (MDD) at imminent risk of suicide; test: Example 4 Phase 2 study: MOAA/S (sedation)
[9] = test system: adults with major depressive disorder (MDD) at imminent risk of suicide; test: Example 4 Phase 2 study: MADRS item 10 (suicidality); type: in vivo, human; conditions: for MADRS item 10 score: 24 hours post-administration
Text: as §3

[10] = in vivo; cited from earlier work

With CNC1(c2ccccc2Cl)CCCCC1=O (racemic) [racemic ketamine, (R)-2-(2-chlorophenyl)-2-(methylamino)cyclohexanone and (S)-2-(2-chlorophenyl)-2-(methylamino)cyclohexanone] the “patients with >14 points within-patient change from baseline in STS” value ([1]; Day 1) was 94%, the “patients with 4 points within-patient change in STS” value ([1]; Day 1, 1 patient) was 6% and the STS mean score ([1]; Day 1) was 1.7. For the same compound, the STS mean score ([1]; Day 16) was 0.0, the STS mean score ([1]; Day 29) was 0.0 and the “STS-CMCM score (range 0-52 units)” value ([1]; Subject 1, from 18 units) was “zero”. For the same compound, the “STS-CMCM score (range 0-52 units)” value ([1]; Subject 2, from 22 units) was 3 units, the serious adverse events [2] was “no serious adverse events were observed” and the “movement during the anesthetic recovery phase / locomotor activity” value (subjects) was “increased movement during the anesthetic recovery phase”. The “STS-CMCM Risk of Suicide at Within the Next 7 Days score” value (shortened to “STS-CMCM Risk of Suicide”) ([3]; Subject 1, 24 hours post-administration, from 5 units) was 2 units, the “STS-CMCM Risk of Suicide” value ([3]; Subject 2, 24 hours post-administration, baseline 7 units) was 1 unit and the “STS-CMCM Risk of Suicide” value ([3]; the scores on Day 4) was 1 unit. For the same compound, the “STS-CMCM Risk of Suicide” value ([3]; the scores on Day 8) was 0 units, the “subjects with no dissociation (CADSS)” value ([4]; Days 1 and 4, 7 subjects) was “four of the 7” and the subjects reporting dissociation ([4]; after Day 4 (on Day 11 at 40 minutes), 7 subjects) was 1. The “CADSS change from baseline” value ([4]; Day 4 (after second dose)) was 2.3, the “CADSS change from baseline” value ([4]; Day 8 (after third dose)) was 0.4 and the “CADSS change from baseline” value ([4]; after first dose) was 3.8. The sedation or dissociation ([4]; entire patient cohort to the Day 29/30 endpoint) was “no clinically meaningful sedation or dissociation”, the “C-SSRS score for suicidal ideation (yes or no)” value ([5]; Subject 1) was “no” and the “C-SSRS score for suicidal ideation (yes or no)” value ([5]; Subject 2) was “no”. For the same compound, the “reduction of MADRS Total” value [6] was over 50%, the “STS-CMCM score (range 0-9; risk of suicide at this time)” value ([7]; Subject 1, 24 hours post-administration, baseline 7 units) was 3 units and the “STS-CMCM score (range 0-9; risk of suicide at this time)” value ([7]; Subject 1, Day 9) was 2 units. For the same compound, the “STS-CMCM score (range 0-9; risk of suicide at this time)” value ([7]; Subject 2, 24 hours post-administration, from 7 units) was 3 units, the “STS-CMCM score (range 0-9; risk of suicide at this time)” value ([7]; Subject 2, Day 9) was “zero” and the “STS-CMCM score (range 0-9; risk of suicide at this time)” value ([7]; both subjects, Day 8) was 2 units. The “MOAA/S score of the 1 subject with a score <5 units on subsequent dosing days” value ([8]; 6-hour time-point on Day 4) was 4 units, the “subjects with MOAA/S score of 5 units at all time-points” value ([8]; Day 1, 7 subjects) was 5 of 7 and the “MOAA/S score, all subjects” value ([8]; Day 1, no one below) was at least 4 units. The “MADRS item 10 score” value ([9]; Subject 1, baseline 5 units) was 0 units, the “MADRS item 10 score” value ([9]; second subject (not named), baseline 5 units pre-dose) was 0 units and the “sustained response (MADRS Item 10) after the final administration” value ([9]; with SOC) was 15 days. For the same compound, the antidepressant properties [10] was “exhibit antidepressant properties”.

In the case of NC1(c2ccccc2Cl)CCCC(O)C1=O (stereo not shown) [6-hydroxynorketamine], the “movement during the anesthetic recovery phase / locomotor activity” value (subjects) is given as “no anesthetic or locomotor activity” and the antidepressant properties [10] is given as “exhibit antidepressant properties”.

In the case of NC1(c2ccccc2Cl)CCCCC1=O (stereo not shown) [norketamine], the “movement during the anesthetic recovery phase / locomotor activity” value (subjects) is given as “increased movement during the anesthetic recovery phase”.
